Like-named read-outs stand apart in the source and are kept apart here.
How the values were obtained:
rice blast = test: microbe, parasite or virus in culture; format: cell-based; conditions: for the inhibition rate against rice blast (%) 0.03 mg/L: Table 21, 0.03 mg/L; for the inhibition rate against rice blast (%) 0.1 mg/L: Table 21, 0.1 mg/L; for the inhibition rate against rice blast (%) 0.3 mg/L: Table 21, 0.3 mg/L; for inhibition rate against rice blast: in vitro, dose 8.3 mg/L
cucumber downy mildew = test: Protectant activity in vivo (whole plant) against cucumber downy mildew; conditions: for pest or weed control at 12.5 µg/mL / pest or weed control at 25 µg/mL / pest or weed control at 50 µg/mL / pest or weed control at 100 µg/mL / pest or weed control at 400 µg/mL: Cucumis sativus, 168 h; for pest or weed control at 25 µg/mL / pest or weed control at 50 µg/mL / pest or weed control at 100 µg/mL: read-out: the protectant activity (%) against cucumber downy mildew
Method: (§1) The method is as followed: The whole plant is used in this test. The compound is dissolved in a proper solvent to get mother solution. The proper solvent is selected from acetone, methanol, DMF and so on according to their dissolving capability to the sample. The volume rate of solvent and testing solution (v/v) is equal to or less than 5%. The mother solution is diluted with water containing 0.1% tween-80 to get the testing solution whose concentration is designed. The testing solution is sprayed to the host plant by a special plant sprayer. The plant is inoculated with fungus after 24 hours. According to the infecting characteristic of fungus, the plant is stored in a humidity chamber and then transferred into greenhouse after infection is finished. And the other plants are placed in greenhouse directly. The activity of compound is obtained by eyeballing after 7 days in common.

corn rust = test: Protectant activity in vivo (whole plant) against corn rust; conditions: for pest or weed control at 6.25 µg/mL / pest or weed control at 25 µg/mL / pest or weed control at 100 µg/mL / pest or weed control at 400 µg/mL: Zea mays, 168 h
Method: as §1

cucumber gray mold = test: Activity in vitro (96-well, High Through Put): inhibition rate against cucumber gray mold; format: cell-based; conditions: for inhibition at 0.3 µg/mL: 0.3 mg/L; for inhibition at 0.9 µg/mL: 0.9 mg/L; for inhibition at 0.9 µg/mL / inhibition at 2.8 µg/mL / inhibition at 8.3 µg/mL: read-out: the inhibition rate against cucumber gray mold (%); for inhibition at 2.8 µg/mL: 2.8 mg/L; for inhibition at 8.3 µg/mL: 8.3 mg/L; for inhibition at 25 µg/mL: in vitro, dose 25 mg/L
Method: The method is as followed: High Through Put is used in the test. The compound is dissolved in a proper solvent to become a testing solution whose concentration is designed. The solvent is selected from acetone, methanol, DMF and so on according to their dissolving capability to the sample. In a no animalcule condition, the testing solution and pathogens suspension are added into the cells of 96 cells culture board, which then should be placed in the constant temperature box. 24 hours later, pathogen germination or growth can be investigated by eyeballing, and the activity in vitro of the compound is evaluated based on germination or growth of control treatment.

[1] = 400 mg/L, read-out: the protectant activity (%) against corn rust
[2] = dose 400 mg/L, read-out: protectant activity against corn rust in vivo

## N#Cc1c(Cl)c(Cl)c(Nc2cc(Cl)cnc2Cl)c(C#N)c1Cl [Compound B-133]
Rice blast
  the inhibition rate against rice blast (%) 0.03 mg/L: 100%
  the inhibition rate against rice blast (%) 0.1 mg/L: 100%
  the inhibition rate against rice blast (%) 0.3 mg/L: 100%
Cucumber downy mildew; 12.5 mg/L
  the protectant activity (%) against cucumber downy mildew: 95%
Cucumber downy mildew; 25 mg/L
  the protectant activity (%) against cucumber downy mildew: 100%
Cucumber downy mildew; 50 mg/L
  the protectant activity (%) against cucumber downy mildew: 100%
Cucumber downy mildew; 100 mg/L
  the protectant activity (%) against cucumber downy mildew: 100%
Cucumber downy mildew; dose 6.25 mg/L
  protectant activity against cucumber downy mildew in vivo: 80%
Cucumber downy mildew; dose 25 mg/L
  protectant activity against cucumber downy mildew in vivo: 100%
Cucumber downy mildew; dose 50 mg/L
  protectant activity against cucumber downy mildew in vivo: 100%
Cucumber downy mildew; dose 100 mg/L
  protectant activity against cucumber downy mildew in vivo: 100%

## COc1ccc(Nc2c(Cl)c(C#N)c(Cl)c(Cl)c2C#N)cc1 [Compound C-14]
Rice blast
  inhibition rate against rice blast: 80%

## N#Cc1c(Cl)c(Cl)c(C#N)c(Nc2c(Cl)cc([N+](=O)[O-])cc2Br)c1Cl [Compound C-49]
Rice blast
  the inhibition rate against rice blast (%) 0.03 mg/L: 100%
  the inhibition rate against rice blast (%) 0.1 mg/L: 100%
  the inhibition rate against rice blast (%) 0.3 mg/L: 100%
Corn rust; 6.25 mg/L
  the protectant activity (%) against corn rust: 50%
Corn rust; 25 mg/L
  the protectant activity (%) against corn rust: 80%
Corn rust; 100 mg/L
  the protectant activity (%) against corn rust: 90%
Corn rust; 400 mg/L
  the protectant activity (%) against corn rust: 100%
Corn rust; dose 400 mg/L
  protectant activity against corn rust in vivo: 100%

## COc1ccc(Nc2c(F)c(C#N)c(F)c(F)c2C#N)cc1 [Compound C-68]
Rice blast
  inhibition rate against rice blast: 80%

## N#Cc1c(Cl)c(Cl)c(C#N)c(Nc2cc(Cl)cnc2Cl)c1Cl [Compound C-118]
Rice blast
  the inhibition rate against rice blast (%) 0.03 mg/L: 100%
  the inhibition rate against rice blast (%) 0.1 mg/L: 100%
  the inhibition rate against rice blast (%) 0.3 mg/L: 100%
Cucumber downy mildew; dose 400 mg/L
  protectant activity against cucumber downy mildew in vivo: 100%

## N#Cc1c(Cl)c(Cl)c(C#N)c(Nc2c(Cl)cncc2Cl)c1Cl [Compound C-124]
Rice blast
  the inhibition rate against rice blast (%) 0.03 mg/L: 100%
  the inhibition rate against rice blast (%) 0.1 mg/L: 100%
  the inhibition rate against rice blast (%) 0.3 mg/L: 100%
Cucumber downy mildew; dose 50 mg/L
  protectant activity against cucumber downy mildew in vivo: 100%
Cucumber downy mildew; dose 100 mg/L
  protectant activity against cucumber downy mildew in vivo: 100%
Cucumber downy mildew; dose 400 mg/L
  protectant activity against cucumber downy mildew in vivo: 100%

## N#Cc1c(Cl)c(Cl)c(C#N)c(Nc2ncccn2)c1Cl [Compound C-126]
Rice blast
  inhibition rate against rice blast: 80%
Cucumber downy mildew; dose 400 mg/L
  protectant activity against cucumber downy mildew in vivo: 100%

## CN(C)c1ccc(Nc2c(F)c(F)c(C#N)c(F)c2C#N)cc1 [KC24]
Cucumber gray mold
  inhibition at 0.3 µg/mL: 0%
  inhibition at 0.9 µg/mL: 0%
  inhibition at 2.8 µg/mL: 0%
  inhibition at 8.3 µg/mL: 0%
  inhibition at 25 µg/mL: 0%
Cucumber downy mildew; 12.5 mg/L
  pest or weed control at 12.5 µg/mL: 0%
Cucumber downy mildew; 25 mg/L
  pest or weed control at 25 µg/mL: 0%
Cucumber downy mildew; 50 mg/L
  pest or weed control at 50 µg/mL: 0%
Cucumber downy mildew; 100 mg/L
  pest or weed control at 100 µg/mL: 0%
Cucumber downy mildew; dose 400 mg/L
  pest or weed control at 400 µg/mL: 0%
Corn rust; 6.25 mg/L
  pest or weed control at 6.25 µg/mL: 0%
Corn rust; 25 mg/L
  pest or weed control at 25 µg/mL: 0%
Corn rust; 100 mg/L
  pest or weed control at 100 µg/mL: 0%
Corn rust; [1]
  pest or weed control at 400 µg/mL: 0%
Corn rust; [2]
  pest or weed control at 400 µg/mL: 0%

## COc1ccc(Nc2c(F)c(F)c(C#N)c(C#N)c2F)c(OC)c1 [KC27]
Cucumber gray mold
  inhibition at 0.3 µg/mL: 0%
  inhibition at 0.9 µg/mL: 0%
  inhibition at 2.8 µg/mL: 0%
  inhibition at 8.3 µg/mL: 0%
  inhibition at 25 µg/mL: 0%
Cucumber downy mildew; 12.5 mg/L
  pest or weed control at 12.5 µg/mL: 0%
Cucumber downy mildew; 25 mg/L
  pest or weed control at 25 µg/mL: 0%
Cucumber downy mildew; 50 mg/L
  pest or weed control at 50 µg/mL: 0%
Cucumber downy mildew; 100 mg/L
  pest or weed control at 100 µg/mL: 0%
Cucumber downy mildew; dose 400 mg/L
  pest or weed control at 400 µg/mL: 0%
Corn rust; 6.25 mg/L
  pest or weed control at 6.25 µg/mL: 0%
Corn rust; 25 mg/L
  pest or weed control at 25 µg/mL: 0%
Corn rust; 100 mg/L
  pest or weed control at 100 µg/mL: 0%
Corn rust; [1]
  pest or weed control at 400 µg/mL: 0%
Corn rust; [2]
  pest or weed control at 400 µg/mL: 0%

## O=[N+]([O-])c1cc(C(F)(F)F)c(Cl)c([N+](=O)[O-])c1Nc1ncc(C(F)(F)F)cc1Cl [fluazinam]
Rice blast; Pyricularia oryzae, read-out: the inhibition rate against rice blast (%) 0.03 mg/L
  inhibition at 0.03 µg/mL: 50%
Rice blast; Pyricularia oryzae, read-out: the inhibition rate against rice blast (%) 0.1 mg/L
  inhibition at 0.1 µg/mL: 80%
Rice blast; Pyricularia oryzae, read-out: the inhibition rate against rice blast (%) 0.3 mg/L
  inhibition at 0.3 µg/mL: 100%
